In the Biogen ADME set (Fang et al. 2023):
Values after ≈ are worked out from the molar mass of the structure shown.

Details: for aqueous solubility: pH 6.8

Row | MDR1-MDCK efflux ratio | intrinsic clearance, human liver microsomes | intrinsic clearance, rat liver microsomes | aqueous solubility | fraction unbound, human plasma | fraction unbound, rat plasma | Compound
1 | 0.501 | 506 mL/min/kg | 3360 mL/min/kg | 27.7 µg/mL (≈ 105 µM) |  |  | Cn1c(-c2ccccc2)cnc1NCc1ccccc1
2 | 28.3 | ≤ 4.74 mL/min/kg | ≤ 10.7 mL/min/kg | 47.5 µg/mL (≈ 178 µM) |  |  | Cc1cc(C)n(CCNC(=O)NC2CCOCC2)n1
3 |  | ≤ 4.74 mL/min/kg | ≤ 10.7 mL/min/kg |  |  |  | NCCc1cnn(Cc2ccccc2)c1
4 | 1 | 5.56 mL/min/kg | 366 mL/min/kg | 28.4 µg/mL (≈ 109 µM) |  |  | COc1ccc(CCn2c(C3CC3)n[nH]c2=O)cc1
5 | 0.774 | 84.5 mL/min/kg | 309 mL/min/kg | 46.6 µg/mL (≈ 151 µM) |  |  | Cc1ncc2c(n1)CN(CCCc1nc3ccccc3o1)CC2
6 |  | 8.01 mL/min/kg | 195 mL/min/kg | 47.9 µg/mL (≈ 154 µM) |  |  | Cc1nc2ccc(C(=O)NCCCc3ccc(F)cc3)cc2[nH]1
7 | 80.8 |  |  |  |  |  | C[C@H]1CN(Cc2c(Cl)cccc2C(F)(F)F)C[C@@]1(CC(=O)O)C(=O)NC1CCN(CC2=CCCCC2)CC1
8 | 59.5 | ≤ 4.74 mL/min/kg | 29.3 mL/min/kg | 46.3 µg/mL (≈ 134 µM) |  |  | CC(=O)NCC1CCN(C(=O)c2cncn2-c2ccc(F)cc2)CC1
9 | 2.83 | ≤ 4.74 mL/min/kg | 112 mL/min/kg |  |  |  | CCn1nc(CNC(=O)C2CCOCC2)c2ccccc21
10 |  | ≤ 4.74 mL/min/kg | ≤ 10.7 mL/min/kg | 33.6 µg/mL (≈ 164 µM) |  |  | CC(=O)N1c2ccccc2C[C@H]1C(=O)O
11 | 0.928 | ≤ 4.74 mL/min/kg | 48.3 mL/min/kg | 39 µg/mL (≈ 90.4 µM) |  |  | COc1cc(OC)cc(-c2nnc(SCC(=O)Nc3cccc(C(=O)O)c3)s2)c1
12 | 0.718 | 15 mL/min/kg | 361 mL/min/kg | 37.8 µg/mL (≈ 158 µM) |  |  | CN(Cc1ccccn1)c1nc2ccccc2o1
13 | 1.12 | 34.2 mL/min/kg | 287 mL/min/kg |  |  |  | CCc1cc(=O)[nH]c(SCCCCC2CCOCC2)n1
14 | 37.9 | 15.7 mL/min/kg | 210 mL/min/kg |  |  |  | CC(C)Oc1ccc(C2(C(=O)NC3CCS(=O)(=O)CC3)CCCC2)cc1
15 | 12.5 | 101 mL/min/kg | 1270 mL/min/kg |  |  |  | Cc1cccc(NC(=O)CN(C)Cc2nc3ccc(Cl)cc3c(=O)[nH]2)c1C
16 | 1.12 | 16.5 mL/min/kg | 156 mL/min/kg | 63.3 µg/mL (≈ 199 µM) |  |  | Cc1ccnc(NC(=O)CN(C)C(=O)c2ccc(Cl)cc2)c1
17 | 1.97 | 404 mL/min/kg | 653 mL/min/kg | 35.3 µg/mL (≈ 80.9 µM) |  |  | O=C(C(c1ccccc1)c1ccccc1)N1CCOCC(Cc2ccc3cnccc3c2)C1 (configuration not stated)
18 | 0.698 | ≤ 4.74 mL/min/kg | 46.5 mL/min/kg | 22.7 µg/mL (≈ 89.8 µM) |  |  | COc1cccc(-c2nc(-c3cccnc3)n[nH]2)c1
19 |  | ≤ 4.74 mL/min/kg | 62.6 mL/min/kg | 26.5 µg/mL (≈ 82.6 µM) |  |  | C[C@H](C(=O)Nc1nc2ccccc2[nH]1)N1Cc2ccccc2C1=O
20 |  | 267 mL/min/kg | 512 mL/min/kg |  |  |  | O=[N+]([O-])c1ccc(S(=O)(=O)Nc2cccc(-c3nc4ccccc4s3)c2)cc1

Row | MDR1-MDCK efflux ratio | intrinsic clearance, human liver microsomes | intrinsic clearance, rat liver microsomes | aqueous solubility | fraction unbound, human plasma | fraction unbound, rat plasma | Compound
21 | 2.42 | ≤ 4.74 mL/min/kg | ≤ 10.7 mL/min/kg | 51 µg/mL (≈ 206 µM) |  |  | CC(=O)Nc1cc(CCC2CCNCC2)ccn1
22 | 0.716 | 27.8 mL/min/kg | 655 mL/min/kg | 18.5 µg/mL (≈ 74.2 µM) |  |  | Cc1cc(OCc2ncc(C(C)(C)C)o2)nn1C
23 | 4.51 | 68.5 mL/min/kg | 698 mL/min/kg | 48.6 µg/mL (≈ 163 µM) |  |  | CCN(CC)C(=O)N1CCCN(C(=O)N(CC)CC)CC1
24 | 1.44 | ≤ 4.74 mL/min/kg | 20 mL/min/kg |  |  |  | Cc1nnc(CN(C)Cc2cnn(C)c2C)s1
25 | 0.752 | ≤ 4.74 mL/min/kg | ≤ 10.7 mL/min/kg |  |  |  | Cc1nc2ncc3c(n2n1)CCCC3=O
26 | 1.98 | 119 mL/min/kg | 1960 mL/min/kg |  |  |  | CC1CCN(C(=O)CCn2ccc3ccncc32)CC1
27 | 0.772 | ≤ 4.74 mL/min/kg | 35.9 mL/min/kg | 51.6 µg/mL (≈ 198 µM) |  |  | O=C(Cc1ccc(Cl)cc1)NCc1ccncc1
28 |  | 29.3 mL/min/kg | 303 mL/min/kg | 4.95 µg/mL (≈ 14.2 µM) |  |  | Oc1cccc(CN2CCN(c3ncc(Br)cn3)CC2)c1
29 | 0.595 | 59.9 mL/min/kg | 654 mL/min/kg | 22.7 µg/mL (≈ 90.9 µM) |  |  | CCOc1ncccc1-c1cc(Cl)ccc1O
30 | 0.518 | 42.1 mL/min/kg | 2670 mL/min/kg |  |  |  | O=C(CSCCc1ccccn1)Nc1ccccc1
31 |  | 9.21 mL/min/kg | 331 mL/min/kg |  | 1 | 0.727 | Cc1cc(N2CCCC2)nc(C2CCCN(C)C2)n1 (configuration not stated)
32 |  | 137 mL/min/kg | 569 mL/min/kg |  |  |  | Cc1ccnc(NC(=O)c2ccnc(C)n2)c1
33 | 36.9 | 21.1 mL/min/kg | 70 mL/min/kg | 52.5 µg/mL (≈ 135 µM) |  |  | Cc1ccc2nc(C)c(C(=O)N3CCC(C(=O)Nc4ccncc4)CC3)cc2c1
34 |  | 225 mL/min/kg | 1470 mL/min/kg | 1.22 µg/mL (≈ 2.64 µM) |  |  | CCN(Cc1nc2cc(Cl)ccc2c(=O)[nH]1)C(=O)COc1ccccc1Cc1ccccc1
35 |  | 421 mL/min/kg | 6460 mL/min/kg |  |  |  | Cc1ccc(C)c(OCCC(=O)N2CCC(n3c(=O)[nH]c4ccccc43)CC2)c1
36 | 23.2 | ≤ 4.74 mL/min/kg | 46 mL/min/kg |  |  |  | CN(CC1(CO)CCC1)C(=O)CCN1CCCCC1=O
37 | 24.1 |  |  | 17.8 µg/mL (≈ 46 µM) |  |  | Cc1cc(C)c(S(=O)(=O)Nc2ccc3c(c2)OCO3)c(C)c1-n1cnnn1
38 |  |  |  | 32.6 µg/mL (≈ 140 µM) |  |  | CN(C)S(=O)(=O)N(C1CCCC1)C1CC1
39 | 8.45 | ≤ 4.74 mL/min/kg | 25.3 mL/min/kg | 61.1 µg/mL (≈ 132 µM) |  |  | CC(C)(C)NC(=O)c1cncn1C1CCN(c2ccc(-c3nnc(C(F)(F)F)o3)cn2)CC1
40 |  | 19.2 mL/min/kg | 169 mL/min/kg | 49.4 µg/mL (≈ 172 µM) |  |  | CCCN1CCCN(C(=O)c2nc3ccccc3[nH]2)CC1

Row | MDR1-MDCK efflux ratio | intrinsic clearance, human liver microsomes | intrinsic clearance, rat liver microsomes | aqueous solubility | fraction unbound, human plasma | fraction unbound, rat plasma | Compound
41 | 0.725 | ≤ 4.74 mL/min/kg | ≤ 10.7 mL/min/kg |  |  |  | Cc1ccc(Oc2ccc(N)cc2)nn1
42 | 0.789 | 7.77 mL/min/kg | 35.6 mL/min/kg | 43.7 µg/mL (≈ 172 µM) |  |  | Cc1nc(NCc2ccc(F)c(Cl)c2)n(C)n1
43 | 4.26 |  |  | 0.8 µg/mL (≈ 1.95 µM) |  |  | O=C(CCOc1ccccc1)N1CCCC(c2n[nH]cc2-c2ccc(Cl)cc2)C1 (configuration not stated)
44 |  |  |  | 0.4 µg/mL (≈ 1.07 µM) |  |  | CCn1c(=O)c2cc(OC)c(OC)cc2n(Cc2ccc(Cl)cc2)c1=O
45 | 5.37 | 11.2 mL/min/kg | 236 mL/min/kg |  |  |  | CCn1nc(CNC(=O)c2nc(C)c[nH]2)c2ccccc21
46 |  |  |  | 8.26 µg/mL (≈ 24.5 µM) |  |  | Cc1cccc2c(=O)n(CCC(=O)Nc3cc(C4CC4)n[nH]3)cnc12
47 | 13.5 | 8.23 mL/min/kg | 58.2 mL/min/kg | 32.2 µg/mL |  |  | C[n+]1cc2c3c(ccc2c2ccc4cc5c(cc4c21)OCO5)OCO3
48 | 0.492 | 18 mL/min/kg | 448 mL/min/kg | 63.8 µg/mL (≈ 235 µM) |  |  | Cc1noc(C2CCN(CCc3ccccc3)CC2)n1
49 | 2.65 | 32.1 mL/min/kg | 379 mL/min/kg |  |  |  | CC(C)c1ccc(CN2CCN(C(=O)C3CCN(C(=O)C4CC4)CC3)CC2)cc1
50 |  | 25.9 mL/min/kg | 211 mL/min/kg | 55.6 µg/mL (≈ 172 µM) |  |  | COc1ccc(CN(C)c2ncncc2Br)cc1O
51 | 5.9 | 5.64 mL/min/kg | 131 mL/min/kg | 30.6 µg/mL (≈ 83.3 µM) |  |  | CS(=O)(=O)CCc1nc(C2(c3ccccc3)CC2)nn1-c1ccccc1
52 | 0.95 | 29.7 mL/min/kg | 1050 mL/min/kg |  |  |  | Cc1cnc(NCC2(CO)CCCC2)nc1N(C)C
53 | 1.2 | 62.2 mL/min/kg | 468 mL/min/kg | 60.3 µg/mL (≈ 179 µM) |  |  | O=C(COc1ncnc2ccccc12)NC12CC3CC(CC(C3)C1)C2
54 | 0.301 |  |  | 0.62 µg/mL (≈ 2.05 µM) |  |  | C1CCN(c2nc(NC3CC3)nc(N3CCCCC3)n2)CC1
55 |  | ≤ 4.74 mL/min/kg | 28.6 mL/min/kg |  |  |  | c1ccc(-c2cn(C3CNC3)nn2)cc1
56 | 1.06 | ≤ 4.74 mL/min/kg | 291 mL/min/kg | 31.8 µg/mL (≈ 107 µM) |  |  | CCc1cnc(NCc2ccc(CN3CCCC3)cc2)nc1
57 | 2.3 | ≤ 4.74 mL/min/kg | 490 mL/min/kg | 34.2 µg/mL (≈ 138 µM) |  |  | CC1CCN(CCNC(=O)c2ccncc2)CC1
58 |  |  |  | 0.3 µg/mL (≈ 0.929 µM) |  |  | CCN1C(=O)C(=O)N(Cc2sc3ccccc3c2Cl)C1=O
59 | 3.87 | ≤ 4.74 mL/min/kg | ≤ 10.7 mL/min/kg | 80.5 µg/mL (≈ 217 µM) |  |  | O=C1Oc2nc3cc4c(cc3cc2CN1CCN1CCOCC1)OCCO4
60 |  | 13.7 mL/min/kg | 270 mL/min/kg |  |  |  | Cc1cc(CN(C)C(=O)C(=O)Nc2ccc(F)c(C)c2)no1
